ChEMBL document CHEMBL1201862, “PubChem BioAssay data set” (2004)
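Tested at 5 concentrations; 48 h exposure; 96-well plates; endpoints linearly interpolated, else capped at highest concentration. At the GI50, growth is halved.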 Activity calls are given as the source filed them. No stated cut-off is given here; in the data, active = GI50 up to about 1.1 µM and inactive = higher.

Experiments:
Test in all cases: NCI anticancer screen, dose series, 48 h
BT-549 = test system: BT-549
UACC-257 = test system: UACC-257
PC-3 = test system: PC-3
COLO 205 = test system: COLO 205
NCI-H522 = test system: NCI-H522
RXF 393 = test system: RXF 393
SK-OV-3 = test system: SK-OV-3
IGROV-1 = test system: IGROV-1
EKVX = test system: EKVX
SF-295 = test system: SF-295
OVCAR-8 = test system: OVCAR-8
M14 = test system: M14
KM12 = test system: KM12
DU-145 = test system: DU-145
SF-268 = test system: SF-268
OVCAR-4 = test system: OVCAR-4
CCRF-CEM = test system: CCRF-CEM
MDA-MB-435 = test system: MDA-MB-435
HT-29 = test system: HT-29
UO-31 = test system: UO-31

| SMILES | GI50 (BT-549) | GI50 (UACC-257) | GI50 (PC-3) | GI50 (COLO 205) | GI50 (NCI-H522) | GI50 (RXF 393) | GI50 (SK-OV-3) | GI50 (IGROV-1) | GI50 (EKVX) | GI50 (SF-295) | GI50 (OVCAR-8) | GI50 (M14) | GI50 (KM12) | GI50 (DU-145) | GI50 (SF-268) | GI50 (OVCAR-4) | GI50 (CCRF-CEM) | GI50 (MDA-MB-435) | GI50 (HT-29) | GI50 (UO-31) |
| --- | --- | --- | --- | --- | --- | --- | --- | --- | --- | --- | --- | --- | --- | --- | --- | --- | --- | --- | --- | --- |
| Clc1ccc(-c2cn3c(nc4ccccc43)c(-c3ccccc3)n2)cc1 | 19.5 µM (inactive) | 61.2 µM (inactive) | 18.7 µM (inactive) | 40.2 µM (inactive) | 13.8 µM (inactive) | 15.6 µM (inactive) | 11.6 µM (inactive) | 24 µM (inactive) | 64.3 µM (inactive) | 13.3 µM (inactive) | 12.1 µM (inactive) | 28.3 µM (inactive) | > 57.5 µM (inactive) | > 71.9 µM (inactive) | 48 µM (inactive) | 5.85 µM (inactive) | > 70.8 µM (inactive) | 25.2 µM (inactive) | 10.8 µM (inactive) | 24.2 µM (inactive) |
| CCN(CC)CCN1c2ccccc2Sc2ccc3ccccc3c21 | 14.9 µM (inactive) | 7.69 µM (inactive) | 6.73 µM (inactive) | 4.75 µM (inactive) | 11.8 µM (inactive) | 2.12 µM (inactive) | 15.8 µM (inactive) | 10.2 µM (inactive) | 6.37 µM (inactive) | 13.2 µM (inactive) | 12.6 µM (inactive) | 3.01 µM (inactive) | 7 µM (inactive) | 3.93 µM (inactive) | 14.4 µM (inactive) | 5.36 µM (inactive) | 2.92 µM (inactive) | 8.63 µM (inactive) | 3.18 µM (inactive) | 5.81 µM (inactive) |
| c1c[nH]c(CN2CCN(Cc3ncc[nH]3)CC2)n1 | > 100 µM (inactive) | > 100 µM (inactive) | > 100 µM (inactive) | > 100 µM (inactive) | > 100 µM (inactive) | > 100 µM (inactive) | > 100 µM (inactive) | > 100 µM (inactive) | 52.2 µM (inactive) | > 100 µM (inactive) | > 100 µM (inactive) | > 100 µM (inactive) | > 100 µM (inactive) | > 100 µM (inactive) | > 100 µM (inactive) | > 100 µM (inactive) | > 100 µM (inactive) | > 100 µM (inactive) | > 100 µM (inactive) | > 100 µM (inactive) |
| Clc1sc(Cl)c2c1[C@H](Br)C[C@@H]2Cl | 18.2 µM (inactive) | 29.4 µM (inactive) | 40.3 µM (inactive) | 20.1 µM (inactive) | 16.9 µM (inactive) | 26 µM (inactive) | > 100 µM (inactive) | 13.2 µM (inactive) | 35.9 µM (inactive) | 99.5 µM (inactive) | 27.6 µM (inactive) | 20.3 µM (inactive) | 39.8 µM (inactive) | 33.7 µM (inactive) | 23 µM (inactive) | 55.8 µM (inactive) | 17.5 µM (inactive) | 18.4 µM (inactive) | 35 µM (inactive) | 18.3 µM (inactive) |
| CN(C)CCNc1ncnc2[nH]c(-c3ccc4ccccc4c3)nc12 | > 100 µM (inactive) | > 100 µM (inactive) | > 100 µM (inactive) | > 100 µM (inactive) | > 100 µM (inactive) | > 100 µM (inactive) | > 100 µM (inactive) | > 100 µM (inactive) | > 100 µM (inactive) | > 100 µM (inactive) | > 100 µM (inactive) | > 100 µM (inactive) | > 100 µM (inactive) | > 100 µM (inactive) | > 100 µM (inactive) | > 100 µM (inactive) | > 100 µM (inactive) | > 100 µM (inactive) | > 100 µM (inactive) | > 100 µM (inactive) |
| Cc1n[nH]c(=O)n1-n1cccc1 | > 100 µM (inactive) | > 100 µM (inactive) | > 100 µM (inactive) | > 100 µM (inactive) | > 100 µM (inactive) | > 100 µM (inactive) | > 100 µM (inactive) | > 100 µM (inactive) | > 100 µM (inactive) | > 100 µM (inactive) | > 100 µM (inactive) | > 100 µM (inactive) | > 100 µM (inactive) | > 100 µM (inactive) | > 100 µM (inactive) | > 100 µM (inactive) | > 100 µM (inactive) | > 100 µM (inactive) | > 100 µM (inactive) | > 100 µM (inactive) |
| CCOC(=O)NC(Nc1ccc(F)c(F)c1)(C(=O)OCC)C(F)(F)F (stereo not given) | > 100 µM (inactive) | > 100 µM (inactive) | > 80.5 µM (inactive) | > 60.4 µM (inactive) | > 100 µM (inactive) | > 100 µM (inactive) | > 100 µM (inactive) | > 28.1 µM (inactive) | > 100 µM (inactive) | 74 µM (inactive) | 46 µM (inactive) | 0.826 µM (active) | 3.23 µM (inactive) | > 62.8 µM (inactive) | > 100 µM (inactive) | > 46.3 µM (inactive) | > 100 µM (inactive) | 5.69 µM (inactive) | > 100 µM (inactive) | > 65.6 µM (inactive) |
| c1ccc(-c2cc(-c3cc(-c4ccccc4)n(-c4ccccc4)n3)nn2-c2ccccc2)cc1 | > 100 µM (inactive) | > 100 µM (inactive) | > 100 µM (inactive) | > 100 µM (inactive) | > 100 µM (inactive) | > 100 µM (inactive) | > 100 µM (inactive) | > 100 µM (inactive) | > 100 µM (inactive) | > 100 µM (inactive) | > 100 µM (inactive) | > 100 µM (inactive) | > 100 µM (inactive) | > 100 µM (inactive) | > 100 µM (inactive) | 94.8 µM (inactive) | > 100 µM (inactive) | > 100 µM (inactive) | > 100 µM (inactive) | > 100 µM (inactive) |
| CCCC(=O)Nc1cc(/C=C/C(=O)N2C[C@H]3C[C@@]34C2=CC(=O)c2[nH]cc(C)c24)n(C)c1 | < 0.0025 µM (active) | < 0.0025 µM (active) | < 0.0025 µM (active) | < 0.0025 µM (active) | < 0.0025 µM (active) | < 0.0025 µM (active) | 0.00401 µM (active) | < 0.0025 µM (active) | < 0.0025 µM (active) | < 0.0025 µM (active) | < 0.0025 µM (active) | < 0.0025 µM (active) | < 0.0025 µM (active) | < 0.0025 µM (active) | < 0.0025 µM (active) | < 0.0025 µM (active) | < 0.0025 µM (active) | < 0.0025 µM (active) | < 0.0025 µM (active) | 0.00403 µM (active) |
| CCCCOC(=O)Nc1ccc(S(=O)(=O)Nc2c(Cl)cccc2Cl)cc1 | 17.7 µM (inactive) | 35.6 µM (inactive) | 43.3 µM (inactive) | 16.1 µM (inactive) | 42.1 µM (inactive) | 36.9 µM (inactive) | 25.2 µM (inactive) | 30.4 µM (inactive) | 26.6 µM (inactive) | 32.3 µM (inactive) | 22.3 µM (inactive) | 43 µM (inactive) | 36.1 µM (inactive) | 38.9 µM (inactive) | 36.6 µM (inactive) | 12.1 µM (inactive) | 33.6 µM (inactive) | 26.3 µM (inactive) | 14.5 µM (inactive) | 25.6 µM (inactive) |
| COc1ccc2nc3ccccc3c(NCCCCN(C)CCCl)c2c1 | < 0.01 µM (active) | 0.581 µM (active) | 0.0569 µM (active) | < 0.01 µM (active) | < 0.0143 µM (active) | 0.0914 µM (active) | 0.0775 µM (active) | 0.0408 µM (active) | 0.393 µM (active) | 0.0652 µM (active) | 0.0254 µM (active) | 0.0711 µM (active) | 0.0407 µM (active) | 0.0537 µM (active) | 0.0186 µM (active) | 0.0889 µM (active) | 0.013 µM (active) | 0.0783 µM (active) | 0.0178 µM (active) | 0.107 µM (active) |
| COc1cc2c(c(OC)c1OC)-c1ccc(SC)c(=O)cc1[C@@H](NC(=O)C(F)(F)F)CC2 | 0.0118 µM (active) | < 0.01 µM (active) | < 0.01 µM (active) | < 0.01 µM (active) | < 0.01 µM (active) | < 0.01 µM (active) | 0.13 µM (active) | < 0.01 µM (active) | 13.8 µM (inactive) | < 0.01 µM (active) | < 0.01 µM (active) | < 0.01 µM (active) | < 0.01 µM (active) | < 0.01 µM (active) | < 0.01 µM (active) | 10.3 µM (inactive) | < 0.01 µM (active) | < 0.01 µM (active) | < 0.01 µM (active) | < 0.0146 µM (active) |
